From PMC11944910, “N-(9-Acridinyl) Amino Acid Derivatives: Synthesis and In Vitro Evaluation of Anti-Toxoplasma gondii Activity” (Pharmaceutics, 2025)
Several values for one entry are separate records, joined by “and”; a condition that tells them apart may be missing. Equal values may be shown once.

What was measured:
[1] = system: T. gondii RH strain tachyzoites; assay: Anti-T. gondii activity screening (viable tachyzoite count, Trypan blue); type: cell-based, Toxoplasma gondii; conditions: 25 µM, 24 h, compared to untreated control
Method: T. gondii RH strain tachyzoites were obtained from the NRL for Toxoplasmosis, Institute for Medical Research, Belgrade, Serbia, where the RH strain is regularly maintained via passages using female Swiss-Webster mice twice a week (Ethical license no. 323-07-02445/2014-05/1).
The anti-T. gondii activity of the AADs was evaluated according to previously described methodology, slightly modified by using the DMEM culture medium supplemented with 10% bovine calf serum (BCS) without antibiotics (referred to as modified D10 medium). RH strain T. gondii tachyzoites were harvested from the intraperitoneal exudate of infected mice during routine passage of the strain at the NRL for toxoplasmosis. The sample (intraperitoneal lavage fluid of RH strain-infected mice) was then washed three times using Dulbecco Phosphate Buffered Saline (DPBS) (Thermofisher Scientific, Waltham, MA, USA) and centrifuged at 2.500 rpm for five minutes to obtain a pellet consisting of RH strain tachyzoites only. The pellet was then resuspended, and the parasite count was determined by Trypan blue vital staining, using a Bürker-Türk counting chamber. Tachyzoites were resuspended in an appropriate volume of DMEM culture medium to achieve the required tachyzoite concentration. A suspension of tachyzoites (2 × 10^6 tachyzoites/well, in 100 μL volume) was then seeded into a 96-well microplate and exposed to a 25 µM concentration of 10 AADs, as well as a combination of PYR+SDZ, for 24 h. All samples, including the untreated control consisting of RH strain tachyzoites in a modified D10 culture medium, were tested in triplicates.
After 24 h, 20 µL of sample was collected from each well, mixed with an equal volume of Trypan blue stain, and the number of viable tachyzoites was determined using a Bürker-Türk counting chamber. The reduction in the number of viable tachyzoites compared to untreated control was calculated using the following formula:(1) Reduction %=100%−(median value of number of viable tachyzoites in test wells/median value of number of viable tachyzoites in control wells×100%)

[2] = MTT cytotoxicity assay on non-infected Vero cells; type: cell-based; conditions: Chlorocebus sabaeus (African green monkey), non-infected Vero cells (ATCC CCL-81), 72 h incubation
Text: The Vero cell line (ATCC® CCL-81), derived from the kidney tissue of the Green African monkey (Chlorocebus sabaeus), was utilized as a model of non-infected cells in the cytotoxicity assay. The cells were thawed from stocks maintained in liquid nitrogen at the National Reference Laboratory (NRL) for Toxoplasmosis and cultured in D10 medium—Advanced Dulbecco’s Modified Eagle Medium (DMEM) (Thermo Fisher Scientific, Waltham, MA, USA), supplemented with 10% bovine calf serum (BCS) (Sigma-Aldrich, St. Louis, MO, USA), 1% HEPES buffer (Thermo Fisher Scientific, Waltham, MA, USA), and 1% penicillin-streptomycin (Pen/Strep) solution (Thermo Fisher Scientific, Waltham, MA, USA) in T25 and T75 flasks. Depending on confluency, cells were subcultured 1–2 times per week.
The MTT colorimetric assay, a widely used method for assessing the cytotoxicity of newly synthesized compounds, was used to evaluate the toxic effect of AADs on non-infected cells. This assay is based on the ability of metabolically active, viable cells to reduce the yellow 3-(4,5-dimethylthiazol-2-yl)-2,5-diphenyltetrazolium bromide (MTT) reagent to purple formazan. The number of viable cells in the well is directly proportional to the intensity of the resulting color. The MTT assay was performed according to the manufacturer’s instructions using the In Vitro Toxicology Assay Kit (MTT-based, Sigma-Aldrich, St. Louis, MO, USA), with a protocol specifically modified to accommodate the cell line and derivatives analyzed in this study.
In brief, Vero cells were seeded in a 96-well plate, at a density of 25,000 cells per well and incubated for 24 h at 37 °C in a 5% CO2 atmosphere. After the incubation period, the supernatant was removed from each well and replaced with serial dilutions of the analyzed derivatives, as well as with the combination of PYR+SDZ (Sigma-Aldrich, St. Louis, MO, USA) as a positive control. All compounds were investigated in five different concentrations, ranging from 100 μM to 6.25 μM, using a two-fold serial dilution method. The positive control was tested in the range of 0.4 μM + 100 μM to 0.025 μM + 6.25 μM (ratio of PYR+SDZ adjusted according to the literature). In negative control wells, containing only non-infected Vero cells, the discarded supernatant was replaced by a new amount of D10 medium. Blank wells, used to account for any background signal from the colored culture medium, contained only D10 medium. All samples, including controls and blanks, were analyzed in triplicates.
Samples containing Vero cells with added AADs or the positive control were incubated for 72 h. After incubation, the supernatant was discarded, and a new amount of D10 medium (100 μL) was added to each well. The MTT reagent (10 μL, […]) was subsequently added to each well, and the plates were incubated for an additional four hours. After the incubation period, the supernatant was discarded, and the resulting formazan crystals were dissolved using the solubilizing solution from the In Vitro Toxicology Assay Kit. Absorbance was measured at 540 nm using an ELISA plate reader (Multiskan EX, Thermofisher Scientific, Waltham, MA, USA). Data analysis was conducted, and CC50 values (cytotoxic concentration used to lyse/inhibit average of 50% of cells) were obtained using nonlinear regression in GraphPad Prism 10.4.1 (GraphPad Software Inc., La Jolla, CA, USA).

[3] = Solution stability by HPLC; type: physicochemical; conditions: pH 2 (0.01 M HCl) 2 h; pH 5.5 and pH 7.4 phosphate buffer 4 h
Method: Solubility and stability testing was conducted for three of the derivatives, evaluated as potential in vivo testing candidates, namely AAD1, AAD2 and AAD8. The stability of the synthesized AADs was evaluated in mediums with three different pH values: 2 (0.01 M HCl), 5.5 (phosphate buffer) and 7.4 (phosphate buffer). Stability was tested by employing a HPLC method, using an Agilent 1200 chromatograph (Agilent Technologies, Palo Alto, CA, USA) and Zorbax Extend C18 column (Agilent Technologies, Palo Alto, CA, USA). The mobile phase consisted of acetonitrile and water (pH was adjusted to 3.2 using phosphoric acid) at a ratio of 30:70 (v/v) for all three AADs. Column temperature was adjusted to 25 °C, while the flow rate was […]. UV detection was performed at 220, 230, 254, 265 and 280 nm. In short, samples (solutions of the investigated AADs in the appropriate mediums) were injected twice into the HPLC column: the first time right after the preparation of the solutions, and the second time after the stability testing interval—two hours for the pH 2 solution and four hours for the pH 5.5 and 7.4 solutions. At the end of the incubation intervals, the decrease in peak areas and occurrence of additional peaks on chromatograms were analyzed in comparison with the chromatograms obtained right after the preparation of the solutions.

[4] = Solubility by visual inspection; type: physicochemical; conditions: for Solubility on dilution of DMSO solution in pH 7.4 phosphate buffer: diluted up to 10,000 times in pH 7.4 phosphate buffer; for solubility: organic solvent or mixture, DMSO, tested up to 30 mM, read-out: Solubility in DMSO (clear and transparent solutions)
Method: Solubility and stability testing was conducted for three of the derivatives, evaluated as potential in vivo testing candidates, namely AAD1, AAD2 and AAD8. Solubility was evaluated using a visual inspection method, checking the clarity and opalescence of different concentrations (up to 30 mM) of dimethyl sulfoxide (DMSO) solutions of the mentioned AADs, as well as of their further dilutions with the pH 7.4 phosphate buffer (100-, 1000- and 10,000-times dilutions).

## COC(=O)CCCCCCCNc1c2ccccc2nc2ccccc12 [AAD3]
[1]
  Viability Reduction of T. gondii Tachyzoites: 15.2%
[2]
  CC50 at 72 h: 88.4 µM

## CCOC(=O)CCCCCNc1c2ccccc2nc2ccccc12 [AAD1]
[1]
  Viability Reduction of T. gondii Tachyzoites: 24.7%
[3]
  Solution stability (HPLC peak area, additional peaks): stable
[2]
  CC50 at 72 h: 41.7 µM
[4]
  Solubility on dilution of DMSO solution in pH 7.4 phosphate buffer: maintaining solubility
  solubility: ≥ 30 mM

## COC(=O)C(Cc1c[nH]cn1)Nc1c2ccccc2nc2ccccc12 (stereo not shown) [AAD4]
[1]
  Viability Reduction of T. gondii Tachyzoites: 4.5%
[2]
  CC50 at 72 h: 134 µM

## O=C(O)[C@H](Cc1ccccc1)Nc1c2ccccc2nc2ccccc12 [AAD9, (S) 2-(acridin-9-ylamino)-3-phenylpropanoic acid]
[2]
  CC50 at 72 h: 50.2 µM

## O=C(O)CCCCCCCNc1c2ccccc2nc2ccccc12 [AAD6, 8-(acridin-9-ylamino) octanoic acid]
[1]
  Viability Reduction of T. gondii Tachyzoites: 22.0%
[2]
  CC50 at 72 h: 154 µM

## Cn1cc(CC(Nc2c3ccccc3nc3ccccc23)C(=O)O)c2ccccc21 (stereo not shown) [AAD2]
[3]
  Solution stability (HPLC peak area, additional peaks): stable
[2]
  CC50 at 72 h: 60.2 µM
[4]
  Solubility on dilution of DMSO solution in pH 7.4 phosphate buffer: maintaining solubility
  solubility: ≥ 30 mM

## O=C(O)CCCNc1c2ccccc2nc2ccccc12 [AAD8, 4-(acridin-9-ylamino) butanoic acid]
[1]
  Viability Reduction of T. gondii Tachyzoites: 33.3%
[3]
  Solution stability (HPLC peak area, additional peaks): stable
[2]
  CC50 at 72 h: 102 µM
[4]
  Solubility on dilution of DMSO solution in pH 7.4 phosphate buffer: maintaining solubility
  solubility: ≥ 30 mM

## O=C(O)CCNc1c2ccccc2nc2ccccc12 [AAD10, 3-(acridin-9-ylamino) propanoic acid]
[1]
  Viability Reduction of T. gondii Tachyzoites: 21.9%
[2]
  CC50 at 72 h: 177 µM

## O=C(O)CCCCCNc1c2ccccc2nc2ccccc12 [AAD7, 6-(acridin-9-ylamino) hexanoic acid]
[1]
  Viability Reduction of T. gondii Tachyzoites: 20.9% and 20.5%
[2]
  CC50 at 72 h: 93 µM
